# From patent US20100311661A1, “USE OF COMPOUNDS DERIVED FROM CYCLOHEXIMIDE FOR THE TREATMENT OR PREVENTION OF, IN PARTICULAR, ISCHAEMIAS AND CARDIOPATHIES” (Max Planck Gesellschaft Zur Forderung Der Wissenschaften …, priority 2007, published 2010)
# Experiments:
# [1] = system: Hearts of 9-week-old male rats; parameters: species or system rats (Sprague-Dawley)
# adult cardiomyocytes = assay: Adult cardiomyocytes under hypoxia and subsequent reoxygenation; apoptosis by Guava ViaCount assay; conditions: 18 hours hypoxia, 24 hours normoxic; DM-CHX greater than 1 μM; p<0.05
# liver cells of rats = conditions: cited from earlier work
# brain lesions = conditions: photothrombotic in vivo model in rats; cited from earlier work
# retinal ganglion cells = conditions: in vivo; cited from earlier work
Compound,"size of the infarct, qualitative (TTC colouring, visual) [1]",influence on apoptosis (adult cardiomyocytes),protection against cell death (liver cells of rats),brain lesions triggered by radiation (brain lesions),cell death caused by axotomy (retinal ganglion cells)
C[C@@H]1C[C@@H]([C@H](O)CC2CC(=O)N(CC(=O)N(C)C)C(=O)C2)C(=O)[C@@H](C)C1 [DM-CHX],serious difference in colouring,statistically significant influence,–,–,–
"CC1CC(C)C(=O)C(C(O)CC2CC(=O)NC(=O)C2)C1 (centres unmarked) [CHX, 4-[2-(3,5-dimethyl-2-oxocyclohexyl)-2-hydroxy-ethyl]-2,6-piperidindione]",–,–,protective property of CHX against cell death has also been demonstrated,reduces brain lesions,inhibits cell death caused by axotomy
